# Source: ChEMBL document CHEMBL1124865, “Synthesis and biological evaluation of a series of parenteral 3'-quaternary ammonium cephalosporins” (J Med Chem, 1990)
# Legend:
# Type in all cases: functional
# Klebsiella pneumoniae [1] = experiment: microbe, parasite or virus in culture
# Description: Antibacterial activity against Klebsiella pneumoniae 1082E
# Klebsiella pneumoniae [2] = experiment: Antibacterial activity against Klebsiella pneumoniae X26
# Escherichia coli [3] = experiment: In vivo efficacy against Escherichia coli infections in mice
# Serratia marcescens = experiment: Antibacterial activity against Serratia marcescens SE3
# Staphylococcus aureus [4] = experiment: In vivo efficacy against Staphylococcus aureus infections in mice
# Pseudomonas aeruginosa [5] = experiment: Antibacterial activity against Pseudomonas aeruginosa PS18
# Enterobacter cloacae [6] = experiment: Antibacterial activity against Enterobacter cloacae 265A
# Staphylococcus aureus [7] = experiment: Antibacterial activity against penicillin G susceptible Staphylococcus aureus
# Staphylococcus aureus [8] = experiment: In vivo efficacy against Staphylococcus aureus infected mice treated at 1 hr and 5 hr post infection
# Escherichia coli [9] = experiment: In vivo efficacy against Escherichia coli infected mice treated at 1 hr and 5 hr post infection
# Pseudomonas aeruginosa [10] = experiment: Antibacterial activity against Pseudomonas aeruginosa X528
# Staphylococcus aureus [11] = experiment: Antibacterial activity against penicillin G resistance Staphylococcus aureus
# Escherichia coli [12] = experiment: Antibacterial activity against Escherichia coli TEM
# Streptococcus pyogenes = experiment: Antibacterial activity against Streptococcus pyogenes
# Enterobacter cloacae [13] = experiment: Antibacterial activity against Enterobacter cloacae EB5
# Streptococcus pneumoniae = experiment: Antibacterial activity against Streptococcus pneumoniae
# Escherichia coli [14] = experiment: Antibacterial activity against Escherichia coli EC14
# Pseudomonas aeruginosa [15] = experiment: In vivo efficacy against Pseudomonas aeruginosa infected mice treated at 1 hr and 5 hr post infection
# Enterococcus faecium = experiment: Antibacterial activity against Enterococcus faecium
# Pseudomonas aeruginosa [16] = experiment: In vivo efficacy against Pseudomonas aeruginosa infections in mice
# [17] = Klebsiella pneumoniae, read-out: MIC
# [18] = Escherichia coli, read-out: MIC
# [19] = Serratia marcescens, read-out: MIC
# [20] = Staphylococcus aureus, read-out: MIC
# [21] = Pseudomonas aeruginosa, read-out: MIC
# [22] = Enterobacter cloacae, read-out: MIC
# [23] = Staphylococcus aureus, read-out: ED50
# [24] = Escherichia coli, read-out: ED50
# [25] = Streptococcus pyogenes, read-out: MIC
# [26] = Streptococcus pneumoniae, read-out: MIC
# [27] = Pseudomonas aeruginosa, read-out: ED50
# [28] = Enterococcus faecium, read-out: MIC
Structure (SMILES),MIC (Klebsiella pneumoniae [1]; [17]) [µg/mL],MIC (Klebsiella pneumoniae [2]; [17]) [µg/mL],MIC (Serratia marcescens; [19]) [µg/mL],MIC (Pseudomonas aeruginosa [5]; [21]) [µg/mL],MIC (Enterobacter cloacae [6]; [22]) [µg/mL],MIC (Staphylococcus aureus [7]; [20]) [µg/mL],MIC (Pseudomonas aeruginosa [10]; [21]) [µg/mL],MIC (Staphylococcus aureus [11]; [20]) [µg/mL],MIC (Escherichia coli [12]; [18]) [µg/mL],MIC (Streptococcus pyogenes; [25]) [µg/mL],MIC (Enterobacter cloacae [13]; [22]) [µg/mL],MIC (Streptococcus pneumoniae; [26]) [µg/mL],MIC (Escherichia coli [14]; [18]) [µg/mL],MIC (Enterococcus faecium; [28]) [µg/mL],ED50 (Staphylococcus aureus [8]) [mg/kg],ED50 (Escherichia coli [9]) [mg/kg],ED50 (Pseudomonas aeruginosa [15]) [mg/kg],also measured
CO/N=C(\C(=O)N[C@@H]1C(=O)N2C(C(=O)[O-])=C(C[n+]3ccccc3C)CS[C@H]12)c1csc(N)n1,32,0.25,1,64,128,16,32,16,0.5,0.25,2,0.5,0.25,> 128,,,,MIC (Escherichia coli [3]; [18]): 0.06 µg/mL; MIC (Staphylococcus aureus [4]; [20]): 2 µg/mL; ED50 (Staphylococcus aureus [8]; [23]): 2.7 mg/kg; ED50 (Escherichia coli [9]; [24]): < 0.16 mg/kg; ED50 (Pseudomonas aeruginosa [15]; [27]): 12 mg/kg; MIC (Pseudomonas aeruginosa [16]; [21]): 64 µg/mL
CO/N=C(\C(=O)N[C@@H]1C(=O)N2C(C(=O)[O-])=C(C[n+]3cccc(Cl)c3)CS[C@H]12)c1csc(N)n1,16,0.06,0.06,4,8,1,2,2,0.06,< 0.008,0.25,0.015,0.06,> 128,,,,MIC (Escherichia coli [3]; [18]): 0.06 µg/mL; MIC (Staphylococcus aureus [4]; [20]): 1 µg/mL; ED50 (Staphylococcus aureus [8]; [23]): 1.6 mg/kg; ED50 (Escherichia coli [9]; [24]): 0.14 mg/kg; ED50 (Pseudomonas aeruginosa [15]; [27]): > 50 mg/kg; MIC (Pseudomonas aeruginosa [16]; [21]): 8 µg/mL
CO/N=C(\C(=O)N[C@@H]1C(=O)N2C(C(=O)[O-])=C(C[n+]3ccc(CC(=O)NO)cc3)CS[C@H]12)c1csc(N)n1 (stereo in doubt; 8),,,,,,,,,,,,,,,2.5,0.82,>40,MIC (Klebsiella pneumoniae [1]): 16 µg/mL; MIC (Serratia marcescens): 0.5 µg/mL; MIC (Staphylococcus aureus [7]): 4 µg/mL; MIC (Pseudomonas aeruginosa [10]): 32 µg/mL; MIC (Escherichia coli [12]): 0.06 µg/mL; MIC (Enterobacter cloacae [13]): 0.5 µg/mL
CO/N=C(\C(=O)N[C@@H]1C(=O)N2C(C(=O)[O-])=C(C[n+]3ccc(CC(=O)NO)cc3)CS[C@H]12)c1csc(N)n1 (stereo in doubt; 7),,,,,,,,,,,,,,,1.5,0.04,19.6,MIC (Streptococcus pneumoniae): 0.015 µg/mL
CO/N=C(\C(=O)N[C@@H]1C(=O)N2C(C(=O)[O-])=C(C[n+]3cccc(CC(=O)O)c3)CS[C@H]12)c1csc(N)n1 (stereo in doubt; 24),,,,,,,,,,,,,,,,0.09,17.4,MIC (Klebsiella pneumoniae [1]): 8 µg/mL; MIC (Klebsiella pneumoniae [2]): 0.06 µg/mL; MIC (Serratia marcescens): 0.5 µg/mL; MIC (Pseudomonas aeruginosa [10]): 4 µg/mL; MIC (Staphylococcus aureus [11]): 8 µg/mL; MIC (Escherichia coli [14]): 0.125 µg/mL; MIC (Pseudomonas aeruginosa [16]): 16 µg/mL
CO/N=C(\C(=O)N[C@@H]1C(=O)N2C(C(=O)[O-])=C(C[n+]3cccc(CC(=O)O)c3)CS[C@H]12)c1csc(N)n1 (stereo in doubt; 17),,,,,,,,,,,,,,,6.2,<0.16,,MIC (Klebsiella pneumoniae [1]): 32 µg/mL; MIC (Escherichia coli [3]): 0.03 µg/mL; MIC (Serratia marcescens): 0.06 µg/mL; MIC (Staphylococcus aureus [4]): 8 µg/mL; MIC (Staphylococcus aureus [7]): 8 µg/mL; MIC (Staphylococcus aureus [11]): 16 µg/mL; MIC (Streptococcus pyogenes): 0.03 µg/mL; MIC (Enterobacter cloacae [13]): 0.25 µg/mL; MIC (Streptococcus pneumoniae): 0.03 µg/mL; MIC (Escherichia coli [14]): <0.008 µg/mL
CO/N=C(\C(=O)N[C@@H]1C(=O)N2C(C(=O)[O-])=C(C[n+]3ccc(CC(=O)NO)cc3)CS[C@H]12)c1csc(N)n1 (stereo in doubt; 10),,,,,,,,,,,,,,,7.2,,,MIC (Klebsiella pneumoniae [2]): 0.03 µg/mL; MIC (Escherichia coli [12]): 0.25 µg/mL
C=Cc1sc[n+](CC2=C(C(=O)[O-])N3C(=O)[C@@H](NC(=O)/C(=N\OC)c4csc(N)n4)[C@H]3SC2)c1C,4,0.06,0.25,32,4,2,16,4,0.03,0.03,0.25,0.06,0.06,32,,,,
CO/N=C(\C(=O)N[C@@H]1C(=O)N2C(C(=O)[O-])=C(C[n+]3ccc4scc(C(=O)O)c4c3)CS[C@H]12)c1csc(N)n1,4,0.015,0.03,16,32,2,4,16,0.06,0.03,0.125,0.015,0.015,> 128,,,,
CO/N=C(\C(=O)N[C@@H]1C(=O)N2C(C(=O)[O-])=C(C[n+]3csc4c3CCCC4)CS[C@H]12)c1csc(N)n1,2,0.03,0.125,16,1,1,4,2,0.03,0.03,0.125,0.03,0.06,16,,,,
CO/N=C(\C(=O)N[C@@H]1C(=O)N2C(C(=O)[O-])=C(C[n+]3ccc(Cl)cc3)CS[C@H]12)c1csc(N)n1,16,0.03,0.25,16,32,2,4,4,0.03,0.015,0.25,0.03,0.06,> 128,,,,
CO/N=C(\C(=O)N[C@@H]1C(=O)N2C(C(=O)[O-])=C(C[n+]3ccc(CC(=O)NO)cc3)CS[C@H]12)c1csc(N)n1 (stereo in doubt; 13),,,,,,,,,,,,,,,>10,0.05,31,MIC (Staphylococcus aureus [4]): 8 µg/mL; MIC (Enterobacter cloacae [6]): 128 µg/mL; MIC (Pseudomonas aeruginosa [10]): 16 µg/mL; MIC (Pseudomonas aeruginosa [16]): 64 µg/mL
CO/N=C(\C(=O)N[C@@H]1C(=O)N2C(C(=O)O)=C(COC(C)=O)CS[C@H]12)c1csc(N)n1 [CEFOTAXIME],1,0.008,0.25,64,32,2,32,16,0.03,0.015,0.25,0.015,0.03,> 128,,,,
CO/N=C(\C(=O)N[C@@H]1C(=O)N2C(C(=O)[O-])=C(C[n+]3cc(C)c4ccccc4c3)CS[C@H]12)c1csc(N)n1,8,0.015,0.25,16,2,1,4,2,0.03,< 0.008,0.25,< 0.008,0.06,> 128,,,,
CO/N=C(\C(=O)N[C@@H]1C(=O)N2C(C(=O)[O-])=C(C[n+]3ccc(CC(=O)NO)cc3)CS[C@H]12)c1csc(N)n1 (stereo in doubt; 21),,,,,,,,,,,,,,,3.3,0.07,,MIC (Serratia marcescens): 0.06 µg/mL; MIC (Staphylococcus aureus [4]): 2 µg/mL; MIC (Enterobacter cloacae [6]): 16 µg/mL; MIC (Pseudomonas aeruginosa [10]): 1 µg/mL; MIC (Streptococcus pyogenes): 0.015 µg/mL; MIC (Enterobacter cloacae [13]): 0.125 µg/mL
CO/N=C(\C(=O)N[C@@H]1C(=O)N2C(C(=O)[O-])=C(C[n+]3cccc4c3CCCC4)CS[C@H]12)c1csc(N)n1 [CEFQUINOME],4,0.03,0.125,16,2,1,4,2,0.03,< 0.008,0.125,0.015,0.03,128,,,,
CO/N=C(\C(=O)N[C@@H]1C(=O)N2C(C(=O)[O-])=C(C[n+]3ccc(CC(=O)NO)cc3)CS[C@H]12)c1csc(N)n1 (stereo in doubt; 20),,,,,,,,,,,,,,,1.4,<0.03,20,MIC (Klebsiella pneumoniae [1]): 8 µg/mL; MIC (Escherichia coli [3]): 0.06 µg/mL; MIC (Serratia marcescens): 0.25 µg/mL; MIC (Pseudomonas aeruginosa [5]): 16 µg/mL; MIC (Enterobacter cloacae [6]): 64 µg/mL; MIC (Staphylococcus aureus [7]): 8 µg/mL; MIC (Staphylococcus aureus [11]): 16 µg/mL; MIC (Streptococcus pyogenes): 0.06 µg/mL; MIC (Streptococcus pneumoniae): 0.06 µg/mL; MIC (Enterococcus faecium): >128 µg/mL; MIC (Pseudomonas aeruginosa [16]): 8 µg/mL
CO/N=C(\C(=O)N[C@@H]1C(=O)N2C(C(=O)[O-])=C(C[n+]3ccc(CC(=O)NO)cc3)CS[C@H]12)c1csc(N)n1 (stereo in doubt; 12),,,,,,,,,,,,,,,5.3,<0.16,8.6,MIC (Klebsiella pneumoniae [1]): 32 µg/mL; MIC (Klebsiella pneumoniae [2]): 0.06 µg/mL; MIC (Staphylococcus aureus [4]): 4 µg/mL; MIC (Pseudomonas aeruginosa [5]): 8 µg/mL; MIC (Enterobacter cloacae [6]): >128 µg/mL; MIC (Pseudomonas aeruginosa [10]): 4 µg/mL; MIC (Staphylococcus aureus [11]): 8 µg/mL; MIC (Escherichia coli [12]): 0.125 µg/mL; MIC (Enterobacter cloacae [13]): 4 µg/mL; MIC (Escherichia coli [14]): 0.06 µg/mL
CO/N=C(\C(=O)N[C@@H]1C(=O)N2C(C(=O)[O-])=C(C[n+]3ccc4c(S(=O)(=O)O)cccc4c3)CS[C@H]12)c1csc(N)n1,32,0.03,0.25,16,64,4,32,8,0.03,,0.25,0.015,0.015,> 128,,,,MIC (Streptococcus pyogenes): 0.015 µg/mL
